Measured values published in US10590143B2, “Herbicidally active (alkynyl-phenyl)-substituted cyclic dione compounds and derivatives thereof” (Syngenta Limited, priority 2013, dated 2020).
Read-outs that look alike come from different tables or passages of the source.

Experiments:
Assay type in all cases: in vivo
[1] = system: Lolium perenne (LOLPE); assay: Biological Example 2 glasshouse assay for herbicidal activity; conditions: Lolium perenne, post-emergence, 360 h, 14 or 15 DAA, 0.2% v/v X-77, read-out: percentage phytotoxicity LOLPE
Experimental: (§1) Seeds of a variety of monocotyledonous and dicotyledonous test plants are sown in standard soil in pots. The plants are cultivated for one day (for pre-emergence) or for about 12 days (range=10-13 days) (for post-emergence) under controlled conditions in a glasshouse (warm climate species at 24/18° C., cool climate species at 20/16° C., both at day/night; 16 hours light; 65% humidity).
(§2) An “instant formulation”, known as the “IF50”, containing 50 g/litre (i.e. 5% w/v) of the “technical” (i.e. unformulated) active ingredient is prepared by dissolving the active ingredient in a mixture of organic solvents and emulsifier, details of which are provided in the Table below. This IF50 is then mixed with a small, variable amount of acetone to aid dissolution, before addition of a 0.2% v/v aqueous solution of the adjuvant X-77 (which is a mixture of alkyl aryl polyoxyethylene glycols and free fatty acids in isopropanol, CAS Registry number 11097-66-8), as the aqueous diluent, to form an aqueous spray solution which contains a predetermined concentration of the active ingredient (which varies depending on the application rate of the active ingredient to the plants) and 0.2% v/v of the adjuvant X-77. This aqueous spray solution is then sprayed onto the plants, after one day's cultivation (for pre-emergence) or after about 12 days' cultivation (for post-emergence).
(§3) The test plants are then grown on, in a glasshouse (greenhouse) under controlled conditions (at either 24/18° C. or 20/16° C. (day/night) as mentioned above; 16 hours light; 65% humidity) and are watered twice daily. Either 14 or 15 days after application of the herbicide (14 or 15 DAA) (for post-emergence), or 20 days after application of the herbicide (20 DAA) (for pre-emergence), the test plants are evaluated visually, and an assessed percentage phytotoxicity score is given for each herbicidal application on each plant species (where 100%=total damage to plant; 0%=no damage to plant).
(§4) Some of the typical test plants are as follows: • Cool climate crop plants: Triticum aestivum (TRZAW, winter wheat), Brassica napus (BRSNN, rape, also called oilseed rape or rapeseed), Beta vulgaris (BEAVA, sugarbeet). • Warm climate crop plants: Glycine max (GLXMA, soybean). • Cool climate (“cool season”) grassy monocotyledonous weeds: Alopecurus myosuroides (ALOMY), Avena fatua (AVEFA), Lolium perenne (LOLPE), Poa annua (POAAN), Bromus tectorum (BROTE). • Warm climate (“warm season”) grassy monocotyledonous weeds: Setaria faberi (SETFA), SORVU (Sorghum bicolor (L.) Moench ssp. Bicolor, or Sorghum vulgare Pers.), Digitaria sanguinalis (DIGSA), Echinochloa crus-galli (ECHCG), Brachiaria plantaginea (BRAPL); Zea mays (ZEAMX, corn, maize, e.g. volunteer corn).

[2] = system: Brassica napus (BRSNN, rape); assay: as above; conditions: Brassica napus, 360 h, post-emergence, 14 or 15 DAA, 0.2% v/v X-77, read-out: percentage phytotoxicity BRSNN
Experimental: as §1, §2, §3, §4

[3] = system: Alopecurus myosuroides (ALOMY); assay: Biological Example 1 glasshouse assay for herbicidal activity; conditions: 312 h, 13 days after application, read-out: percentage phytotoxicity ALOMY
How it was run: (§5)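 Weeds were sprayed pre-emergence (1 day after sowing) or post-emergence (8 days) with herbicide in acetone/water 50:50 plus 0.5% Tween 20. Plants grew in glasshouse at 24/16 °C, 14 h light, 65% humidity. Phytotoxicity was scored visually at 13 days (0–100%), usually one plant per species per rate.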

[4] = system: Echinochloa crus-galli (ECHCG); assay: as above; conditions: Echinochloa crus-galli, 312 h, 13 days after application, read-out: percentage phytotoxicity ECHCG
How it was run: as §5

[5] = system: Setaria faberi (SETFA); assay: as above; conditions: 312 h, 13 days after application, read-out: percentage phytotoxicity SETFA
How it was run: as §5

[6] = system: Zea mays (ZEAMX, corn, maize, e.g. volunteer corn); assay: as above; conditions: Zea mays, 312 h, 13 days after application, read-out: percentage phytotoxicity ZEAMX
How it was run: as §5

[7] = system: Abutilon theophrasti (ABUTH); assay: as above; conditions: 312 h, 13 days after application, read-out: percentage phytotoxicity ABUTH
How it was run: as §5

[8] = system: Amaranthus retroflexus (AMARE); assay: as above; conditions: Amaranthus retroflexus, 312 h, 13 days after application, read-out: percentage phytotoxicity AMARE
How it was run: as §5

Molecule CC#Cc1cc(F)c(C2C(=O)C3CCC(C3)C2=O)c(OC(F)F)c1 (centres unmarked) [Compound A7] has a pest or weed control at 30 g/ha [1] of 0%, a pest or weed control at 125 g/ha ([1]; 125 g/ha) of 30% and a pest or weed control at 250 g/ha [1] of 40%. For the same molecule, the plant injury at 30 g/ha [2] was 30%, the plant injury at 125 g/ha ([2]; 125 g/ha) was 50% and the plant injury at 250 g/ha [2] was 60%. The pest or weed control at 30 g/ha ([3]; post-emergence) was 60%, the pest or weed control at 250 g/ha ([3]; post-emergence) was 90% and the pest or weed control at 30 g/ha ([3]; pre-emergence) was 60%. The pest or weed control at 250 g/ha ([3]; pre-emergence) was 100%, the pest or weed control at 30 g/ha ([4]; post-emergence, post-emergence) was 90% and the pest or weed control at 250 g/ha ([4]; post-emergence, post-emergence) was 100%. It also gave a pest or weed control at 30 g/ha ([4]; pre-emergence, pre-emergence) of 60%, a pest or weed control at 250 g/ha ([4]; pre-emergence, pre-emergence) of 100% and a pest or weed control at 30 g/ha ([5]; post-emergence, post-emergence) of 70%. For the same molecule, the pest or weed control at 250 g/ha ([5]; post-emergence, post-emergence) was 90%, the pest or weed control at 30 g/ha ([5]; pre-emergence, pre-emergence) was 50% and the pest or weed control at 250 g/ha ([5]; pre-emergence, pre-emergence) was 70%. The pest or weed control at 30 g/ha ([6]; post-emergence, post-emergence) was 80%, the pest or weed control at 250 g/ha ([6]; post-emergence, post-emergence) was 100% and the pest or weed control at 30 g/ha ([6]; pre-emergence, pre-emergence) was 80%. The pest or weed control at 250 g/ha ([6]; pre-emergence, pre-emergence) was 100%, the pest or weed control at 30 g/ha ([7]; post-emergence, post-emergence) was 0% and the pest or weed control at 250 g/ha ([7]; post-emergence, post-emergence) was 70%. It also gave a pest or weed control at 30 g/ha ([7]; pre-emergence, pre-emergence) of 20%, a pest or weed control at 250 g/ha ([7]; pre-emergence, pre-emergence) of 30% and a pest or weed control at 30 g/ha ([8]; post-emergence, post-emergence) of 50%. It also gave a pest or weed control at 250 g/ha ([8]; post-emergence, post-emergence) of 60%, a pest or weed control at 30 g/ha ([8]; pre-emergence, pre-emergence) of 40% and a pest or weed control at 250 g/ha ([8]; pre-emergence, pre-emergence) of 70%.
CC#Cc1cc(F)c(C2=C(OC(=O)C(C)(C)C)C3CCC(C3)C2=O)c(OC)c1 (centres unmarked) [Compound P1] showed a pest or weed control at 30 g/ha [1] of 100%, a pest or weed control at 250 g/ha [1] of 100% and a plant injury at 30 g/ha [2] of 10%. For the same molecule, the plant injury at 250 g/ha [2] was 80%, the pest or weed control at 8 g/ha ([3]; post-emergence) was 60% and the pest or weed control at 30 g/ha ([3]; post-emergence) was 90%. For the same molecule, the pest or weed control at 250 g/ha ([3]; post-emergence) was 100%, the pest or weed control at 30 g/ha ([3]; pre-emergence) was 70% and the pest or weed control at 250 g/ha ([3]; pre-emergence) was 100%. The pest or weed control at 8 g/ha ([4]; post-emergence, post-emergence) was 80%, the pest or weed control at 30 g/ha ([4]; post-emergence, post-emergence) was 100% and the pest or weed control at 250 g/ha ([4]; post-emergence, post-emergence) was 100%. The pest or weed control at 30 g/ha ([4]; pre-emergence, pre-emergence) was 90%, the pest or weed control at 250 g/ha ([4]; pre-emergence, pre-emergence) was 100% and the pest or weed control at 8 g/ha ([5]; post-emergence, post-emergence) was 70%. It also gave a pest or weed control at 30 g/ha ([5]; post-emergence, post-emergence) of 80%, a pest or weed control at 250 g/ha ([5]; post-emergence, post-emergence) of 100% and a pest or weed control at 30 g/ha ([5]; pre-emergence, pre-emergence) of 40%. For the same molecule, the pest or weed control at 250 g/ha ([5]; pre-emergence, pre-emergence) was 80%, the pest or weed control at 8 g/ha ([6]; post-emergence, post-emergence) was 100% and the pest or weed control at 30 g/ha ([6]; post-emergence, post-emergence) was 100%. For the same molecule, the pest or weed control at 250 g/ha ([6]; post-emergence, post-emergence) was 100%, the pest or weed control at 30 g/ha ([6]; pre-emergence, pre-emergence) was 90% and the pest or weed control at 250 g/ha ([6]; pre-emergence, pre-emergence) was 100%. The pest or weed control at 8 g/ha ([7]; post-emergence, post-emergence) was 0%, the pest or weed control at 30 g/ha ([7]; post-emergence, post-emergence) was 0% and the pest or weed control at 250 g/ha ([7]; post-emergence, post-emergence) was 80%. For the same molecule, the pest or weed control at 30 g/ha ([7]; pre-emergence, pre-emergence) was 10%, the pest or weed control at 250 g/ha ([7]; pre-emergence, pre-emergence) was 30% and the pest or weed control at 8 g/ha ([8]; post-emergence, post-emergence) was 0%. The pest or weed control at 30 g/ha ([8]; post-emergence, post-emergence) was 10%, the pest or weed control at 250 g/ha ([8]; post-emergence, post-emergence) was 40% and the pest or weed control at 30 g/ha ([8]; pre-emergence, pre-emergence) was 50%. The pest or weed control at 250 g/ha ([8]; pre-emergence, pre-emergence) was 70%.
CC#Cc1cc(F)c(C2=C(OC(=O)OC(C)C)C3CCC(C3)C2=O)c(OC)c1 (centres unmarked) [Compound P3] gave a pest or weed control at 30 g/ha [1] of 90%, a pest or weed control at 250 g/ha [1] of 100% and a plant injury at 30 g/ha [2] of 10%. For the same molecule, the plant injury at 250 g/ha [2] was 80%, the pest or weed control at 8 g/ha ([3]; post-emergence) was 60% and the pest or weed control at 30 g/ha ([3]; post-emergence) was 80%. It also gave a pest or weed control at 250 g/ha ([3]; post-emergence) of 100%, a pest or weed control at 30 g/ha ([3]; pre-emergence) of 70% and a pest or weed control at 250 g/ha ([3]; pre-emergence) of 100%. For the same molecule, the pest or weed control at 8 g/ha ([4]; post-emergence, post-emergence) was 80%, the pest or weed control at 30 g/ha ([4]; post-emergence, post-emergence) was 100% and the pest or weed control at 250 g/ha ([4]; post-emergence, post-emergence) was 100%. It also gave a pest or weed control at 30 g/ha ([4]; pre-emergence, pre-emergence) of 80%, a pest or weed control at 250 g/ha ([4]; pre-emergence, pre-emergence) of 100% and a pest or weed control at 8 g/ha ([5]; post-emergence, post-emergence) of 60%. The pest or weed control at 30 g/ha ([5]; post-emergence, post-emergence) was 80%, the pest or weed control at 250 g/ha ([5]; post-emergence, post-emergence) was 100% and the pest or weed control at 30 g/ha ([5]; pre-emergence, pre-emergence) was 20%. For the same molecule, the pest or weed control at 250 g/ha ([5]; pre-emergence, pre-emergence) was 80%, the pest or weed control at 8 g/ha ([6]; post-emergence, post-emergence) was 90% and the pest or weed control at 30 g/ha ([6]; post-emergence, post-emergence) was 100%. It also gave a pest or weed control at 250 g/ha ([6]; post-emergence, post-emergence) of 100%, a pest or weed control at 30 g/ha ([6]; pre-emergence, pre-emergence) of 80% and a pest or weed control at 250 g/ha ([6]; pre-emergence, pre-emergence) of 100%. It also gave a pest or weed control at 8 g/ha ([7]; post-emergence, post-emergence) of 10%, a pest or weed control at 30 g/ha ([7]; post-emergence, post-emergence) of 10% and a pest or weed control at 250 g/ha ([7]; post-emergence, post-emergence) of 80%. The pest or weed control at 30 g/ha ([7]; pre-emergence, pre-emergence) was 0%, the pest or weed control at 250 g/ha ([7]; pre-emergence, pre-emergence) was 10% and the pest or weed control at 8 g/ha ([8]; post-emergence, post-emergence) was 0%. It also gave a pest or weed control at 30 g/ha ([8]; post-emergence, post-emergence) of 0%, a pest or weed control at 250 g/ha ([8]; post-emergence, post-emergence) of 40% and a pest or weed control at 30 g/ha ([8]; pre-emergence, pre-emergence) of 30%. For the same molecule, the pest or weed control at 250 g/ha ([8]; pre-emergence, pre-emergence) was 60%.
